Assay results taken from ChEMBL document CHEMBL1146159, “Design, synthesis, and preliminary biological evaluation of novel ethyl 1-(2'-hydroxy-3'-aroxypropyl)-3-aryl-1H-pyrazole-5-carboxylate” (Bioorg Med Chem Lett, 2006).
Calls of active or inactive are those of the source. No cut-off for these calls is given here.

Tests used:
Format in all cases: functional, cell-based
A549 [1] = experiment: Growth inhibition in A549 cells at 100 uM by MTT assay; conditions: Homo sapiens
A549 [2] = experiment: Growth inhibition in A549 cells at 50 uM by MTT assay; conditions: Homo sapiens
A549 [3] = experiment: Growth inhibition in A549 cells after 48 hrs by MTT assay; conditions: Homo sapiens, A549, 48 h
A549 [4] = experiment: Growth inhibition in A549 cells at 25 uM after 48 hrs by MTT assay; conditions: Homo sapiens
A549 [5] = experiment: Growth inhibition in A549 cells at 25 uM after 24 hrs by MTT assay; conditions: Homo sapiens
A549 [6] = experiment: Effect on cell morphology in A549 cells assessed as induction of differentiation at 50 uM; conditions: Homo sapiens
A549 [7] = experiment: Growth inhibition in A549 cells at 12.5 uM after 48 hrs by MTT assay; conditions: Homo sapiens
A549 [8] = experiment: Effect on cell morphology in A549 cells assessed as induction of cellular vacuolation; conditions: Homo sapiens

Row | SMILES | IC50 (A549 [3]) [µM] | Activity (A549 [1]) | Activity (A549 [2]) | Activity (A549 [4]) | Activity (A549 [5]) | Activity (A549 [6]) | Activity (A549 [7]) | Activity (A549 [8])
1 | CCOC(=O)c1cc(-c2ccc(Cl)cc2)nn1CC(O)COc1ccc(Cl)cc1 (stereo unspecified) | 33 | Active | Active | Active |  |  |  | Active
2 | CCOC(=O)c1cc(-c2ccc(OC)cc2)nn1CC(O)COc1ccccc1OC (stereo unspecified) | 68 | Active | Active |  |  |  |  | 
3 | CCOC(=O)c1cc(-c2ccc(OC)cc2)nn1CC(O)COc1ccc(Cl)cc1 (stereo unspecified) | 38 | Active | Active |  |  |  |  | 
4 | CCOC(=O)c1cc(-c2ccccc2)nn1CC(O)COc1ccc([N+](=O)[O-])cc1 (stereo unspecified) | 48 | Active | Active | inactive | Active |  |  | 
5 | CCOC(=O)c1cc(-c2ccc(Cl)cc2)nn1CC(O)COc1ccccc1OC (stereo unspecified) | 32 | Active | Active | Active |  |  |  | 
6 | CCOC(=O)c1cc(-c2ccccc2)nn1CC(O)COc1ccc(Cl)cc1 (stereo unspecified) | 59 | Active | Active |  |  |  |  | 
7 | CCOC(=O)c1cc(-c2ccc(OC)cc2)nn1CC(O)COc1ccc([N+](=O)[O-])cc1 (stereo unspecified) | 44 | Active | Active |  |  |  |  | 

The remaining compounds from weak to strong by IC50 (A549 [3]), led by results:

Row | IC50 (A549 [3]) [µM] | SMILES | Activity (A549 [1]) | Activity (A549 [2]) | Activity (A549 [4]) | Activity (A549 [5]) | Activity (A549 [6]) | Activity (A549 [7]) | Activity (A549 [8])
8 | 65 | CCOC(=O)c1cc(-c2ccccc2)nn1CC(O)COc1ccccc1 (stereo unspecified) | Active | Active | Active |  |  |  | 
9 | 58 | CCOC(=O)c1cc(-c2ccccc2)nn1CC(O)COc1ccccc1OC (stereo unspecified) | Active | Active | inactive | Active |  |  | 
10 | 45 | CCOC(=O)c1cc(-c2ccc(Cl)cc2)nn1CC(O)COc1ccc([N+](=O)[O-])cc1 (stereo unspecified) | Active | Active | inactive | Active |  | Active | 
11 | 45 | CCOC(=O)c1cc(-c2ccc(OC)cc2)nn1CC(O)COc1ccccc1[N+](=O)[O-] (stereo unspecified) | Active | Active |  |  |  |  | 
12 | 33 | CCOC(=O)c1cc(-c2ccc(OC)cc2)nn1CC(O)COc1ccccc1 (stereo unspecified) | Active | Active | Active |  |  |  | 
13 | 30 | CCOC(=O)c1cc(-c2ccccc2)nn1CC(O)COc1ccccc1[N+](=O)[O-] (stereo unspecified) | Active | Active | inactive | Active |  |  | 
14 | 27 | CCOC(=O)c1cc(-c2ccc(Cl)cc2)nn1CC(O)COc1ccccc1 (stereo unspecified) | Active | Active | inactive | Active | Active | Active | 
15 | 26 | CCOC(=O)c1cc(-c2ccc(Cl)cc2)nn1CC(O)COc1ccccc1[N+](=O)[O-] (stereo unspecified) | Active | Active | inactive | Active |  | Active | 
